Where a SMILES comes first, the peptide text is derived from it. Where no end group is shown, it is not given here. The star is where a group is joined. X1 = CC1(C)C(/C=C/C=C/C=C/C=C2/N(CCCCCC(=O)NCCN3C(=O)CC(*)C3=O)c3ccc4ccccc4c3C2(C)C)=[N+](CCCCS(=O)(=O)[O-])c2ccc3ccccc3c21; ICG maleimide = indocyanine green maleimide
Assays:
[1] = Fluorescence imaging of blood flow in mice (ear, leg, blood samples); assay type: in vivo, nude mice; settings: for fluorescent signal in blood samples: blood withdrawn 5-120 min after IV; for imaging of blood vessels (ear, leg): 100 μL of 40 μM IV, 5, 30, 60, 90, 120 min
Procedure: Adult female nude mice (Envigo), 20 g in body mass were used in the study. Fluorescent constructs were given as a single tail vein injection in amounts of 100 μL of 40 μM in PBS. Imaging of mouse ear and leg was performed at 5, 30, 60, 90 and 120 min after construct administration. At 5, 30, 60, 90 and 120 min after construct administration 5 μL of blood was withdrawn from tail (and mixed with 5 μL of anticoagulating solution to preserve blood) while animal was under anesthesia. Mice were euthanized immediately after last imaging point (120 min). Blood collected from all animals was deposited on the glass slide, dried and imaged. Imaging was performed using Novadaq clinical imaging instrument. Autofluorescence was established by imaging mouse with no injection of fluorescent constructs (the level of autofluorescence signal was insignificant compared to the signal after the constructs administration).

[2] = residue X in AcWL-X-LL, relative to virtual glycine; Arg and Lys from pH 1 data; cited from earlier work
[3] = high dose of 5 mg/kg of body weight; cited from earlier work
[4] = cited from earlier work
[5] = current use; cited from earlier work
4T1 tumors = experiment: NIR fluorescence imaging of 4T1 tumors in mice after IV or IP injection; assay type: in vivo, BALB/cAnNHsd mice; settings: 16 h
Procedure: Adult female nude mice and female BALB/cAnNHsd mice (Envigo), 20-25 g in body mass were used in the study. Mouse mammary cancer 4T1 cells were subcutaneously implanted in the right flank (8×10^5 cells/0.1 mL/flank) of adult female BALB/cAnNHsd mice. Rat bladder cancer AY27 cells were subcutaneously implanted in the right flank (8×10^5 cells/0.1 mL/flank) of adult female nude mice. When tumors reached approximately 5-6 mm in diameter, single tail vein injection or single intraperitoneal injection of fluorophore-pHLIP® solutions in PBS were performed. Fluorescent constructs were used in amounts of 100 μL of 40 μM or 100 μL of 20 μM, or 100 μL of 10 μM, or 100 μL of 5 μM. Imaging of mouse was performed at 16 hours after constructs administration. Skin was removed from the tumor site just before imaging while animal was under gas anesthesia, and mice were euthanized immediately after imaging. Tumor, kidney and liver were harvested, imaged and used for histopathological analysis. Imaging was performed using Stryker clinical imaging instrument. Autofluorescence was established by imaging mouse with no injection of fluorescent constructs (the level of autofluorescence signal was insignificant compared to the signal after the constructs administration).

[6] = test system: urothelial carcinoma in human bladder specimens; experiment: Ex vivo NIR fluorescence imaging of human bladder specimens after instillation
Procedure: 22 urothelial carcinoma patients that were scheduled for radical cystectomy were selected over a twelve month period. After radical cystectomy, bladder specimens were immediately removed and irrigated 3 times for 5 min via catheter with non-buffered saline and instilled and incubated with 80 ml of 8 μM or 32.8 μg/ml (unless otherwise is stated, see notes to Table 8) of ICG-Var3 construct or ICG-Cys in PBS pH 7.4 containing 10 mM D-glucose for 60 minutes. Then, the unbound constructs were removed by rinsing with 80 ml of saline solution 3-5 times, the bladder was irrigated thoroughly with buffered saline and opened using a Y incision on the anterior wall. Using a da Vinci Si near-infrared fluorescence imaging system (Firefly®), ex vivo fluorescent and white light imaging of the entire bladder and its parts was performed. The fluorescent spots were marked and standard pathological analysis was carried out to explore the correlation between appearance of fluorescent signal and cancer lesions.
The specimen was sectioned and submitted after 24 hour fixation in 10% phosphate-buffered formalin according to the standard institutional grossing manual, with emphasis on the marked areas of the bladder. The sections were processed for routine histology into paraffin-embedded blocks. […]
Statistical parameters were calculated according to the following equations: […]

Compound: CC[C@H](C)[C@H](NC(=O)[C@@H]1CCCN1C(=O)[C@H](CC(N)=O)NC(=O)[C@H](CCC(N)=O)NC(=O)[C@H](CCC(=O)O)NC(=O)[C@H](CSC1CC(=O)N(CCNC(=O)CCCCCN2/C(=C/C=C/C=C/C=C/C3=[N+](CCCCS(=O)(=O)[O-])c4ccc5ccccc5c4C3(C)C)C(C)(C)c3c2ccc2ccccc32)C1=O)NC(=O)[C@H](C)N)C(=O)N[C@@H](Cc1ccc(O)cc1)C(=O)N[C@@H](Cc1c[nH]c2ccccc12)C(=O)N[C@@H](C)C(=O)N[C@@H](CCCNC(=N)N)C(=O)N[C@@H](Cc1ccc(O)cc1)C(=O)N[C@@H](C)C(=O)N[C@@H](CC(N)=O)C(=O)N[C@@H](Cc1c[nH]c2ccccc12)C(=O)N[C@@H](CC(C)C)C(=O)N[C@@H](Cc1ccccc1)C(=O)N[C@H](C(=O)N[C@H](C(=O)N1CCC[C@H]1C(=O)N[C@@H](CC(C)C)C(=O)N[C@@H](CC(C)C)C(=O)N[C@@H](CC(C)C)C(=O)N[C@@H](CC(C)C)C(=O)N[C@@H](CC(N)=O)C(=O)N[C@@H](CC(C)C)C(=O)N[C@@H](C)C(=O)N[C@@H](CC(C)C)C(=O)N[C@@H](CC(C)C)C(=O)N[C@H](C(=O)N[C@@H](CC(=O)O)C(=O)N[C@@H](C)C(=O)N[C@@H](CC(=O)O)C(=O)N[C@@H](CCC(=O)O)C(=O)NCC(=O)N[C@H](C(=O)O)[C@@H](C)O)C(C)C)[C@@H](C)O)[C@@H](C)O (stereo partly drawn) [ICG-NpHLIP®] (H-AC(X1)EQNPIYWARYANWLFTTPLLLLNLALLVDADEGT-OH)
- fluorescent signal in blood samples [1]: significantly reduced signal

Compound: NC(=O)C[C@H](N)C(=O)O [Asn, Asparagine]
- ΔGX^cor (solvation free energy of the side chain) [2]: +0.30 kcal/mol

Compound: CC1(C)C(/C=C/C=C/C=C/C=C2\N(CCCCS(=O)(=O)[O-])c3ccc4ccccc4c3C2(C)C)=[N+](CCCCS(=O)(=O)[O-])c2ccc3ccccc3c21.[Na+] [ICG, indocyanine green]
- toxic effects [3]: No significant toxic effects
- blood clearance ([4]; half lifetime is just few minutes): fast blood clearance
- metabolites ([4]; in vivo): no known metabolites
- time after which it binds to the regional lymph nodes ([4]; injected outside blood vessels): 1 to 2 h
- time of appearing unconjugated in the bile after injection ([4]; intravenous injection, depends on liver vascularization and function): about 8 min
- imaging time used for free ICG [5]: 2 to 5 min

Compound: N[C@@H](CO)C(=O)O [Ser, Serine]
- ΔGX^cor (solvation free energy of the side chain) [2]: +0.69 kcal/mol

Compound: ICG-Hum pHLIP®: ICG maleimide conjugated to the Cys of Hum pHLIP® GCDNNEGFFATLGGEIPLWSDVVLAIEG (SEQ ID NO: 446) (GC(ICG maleimide)DNNEGFFATLGGEIPLWSDVVLAIEG)
- imaging of blood vessels (ear, leg) [1]: slow in reaching the best imagibility condition and was fast in decaying

Compound: IR800-WT pHLIP®: IR800 maleimide conjugated to the Cys of WT pHLIP® (SEQ ID NO: 444) (AC(IR800 maleimide)EQNPIYWARYADWLFTTPLLLLDLALLVDADEGT)
- imaging of blood vessels (ear, leg) [1]: better in imaging of blood vessels, however not nearly as good as ICG-WT and ICG-Var3 pHLIP®s

Compound: C[C@@H](O)[C@H](N)C(=O)O [Thr, Threonine]
- ΔGX^cor (solvation free energy of the side chain) [2]: +0.90 kcal/mol

Compound: N=C(N)NCCC[C@H](N)C(=O)O [Arg, Arginine]
- ΔGX^cor (solvation free energy of the side chain) [2]: -0.66 kcal/mol

Compound: CC(C)C[C@H](NC(=O)[C@H](Cc1ccc(O)cc1)NC(=O)[C@H](C)NC(=O)[C@H](CCCNC(=N)N)NC(=O)[C@H](Cc1c[nH]c2ccccc12)NC(=O)[C@@H]1CCCN1C(=O)[C@H](CC(N)=O)NC(=O)[C@H](CCC(N)=O)NC(=O)[C@H](CC(=O)O)NC(=O)[C@H](CC(=O)O)NC(=O)[C@H](CSC1CC(=O)N(CCNC(=O)CCCCCN2/C(=C/C=C/C=C/C=C/C3=[N+](CCCCS(=O)(=O)[O-])c4ccc5ccccc5c4C3(C)C)C(C)(C)c3c2ccc2ccccc32)C1=O)NC(=O)[C@H](C)N)C(=O)N[C@@H](CC(=O)O)C(=O)N[C@@H](CC(C)C)C(=O)N[C@@H](CC(C)C)C(=O)N[C@@H](Cc1ccccc1)C(=O)N1CCC[C@H]1C(=O)N[C@H](C(=O)N[C@@H](CC(=O)O)C(=O)N[C@H](C(=O)N[C@@H](CC(C)C)C(=O)N[C@@H](CC(C)C)C(=O)N[C@@H](CC(C)C)C(=O)N[C@@H](CC(=O)O)C(=O)N[C@@H](CC(C)C)C(=O)N[C@@H](CC(C)C)C(=O)N[C@@H](Cc1c[nH]c2ccccc12)C(=O)N[C@@H](C)C(=O)O)[C@@H](C)O)[C@@H](C)O (stereo partly drawn) [ICG-Var3] (H-AC(X1)DDQNPWRAYLDLLFPTDTLLLDLLWA-OH)
- fluorescent signal in blood samples [1]: persistence of strong fluorescent signal within 2 hours
- fluorescent signal in tumor relative to kidney and liver (4T1 tumors): signal in tumor was higher than in kidney and similar or slightly less than in liver
- adverse morphological findings in specimens after incubation [6]: did not show any adverse morphological findings

Compound: C[C@H](N)C(=O)O [Ala, Alanine]
- ΔGX^cor (solvation free energy of the side chain) [2]: +0.65 kcal/mol

Compound: CC[C@H](C)[C@H](NC(=O)[C@@H]1CCCN1C(=O)[C@H](CC(N)=O)NC(=O)[C@H](CCC(N)=O)NC(=O)[C@H](CCC(=O)O)NC(=O)[C@H](CSC1CC(=O)N(CCNC(=O)CCCCCN2/C(=C/C=C/C=C/C=C/C3=[N+](CCCCS(=O)(=O)[O-])c4ccc5ccccc5c4C3(C)C)C(C)(C)c3c2ccc2ccccc32)C1=O)NC(=O)[C@H](C)N)C(=O)N[C@@H](Cc1ccc(O)cc1)C(=O)N[C@@H](Cc1c[nH]c2ccccc12)C(=O)N[C@@H](C)C(=O)N[C@@H](CCCNC(=N)N)C(=O)N[C@@H](Cc1ccc(O)cc1)C(=O)N[C@@H](C)C(=O)N[C@@H](CC(=O)O)C(=O)N[C@@H](Cc1c[nH]c2ccccc12)C(=O)N[C@@H](CC(C)C)C(=O)N[C@@H](Cc1ccccc1)C(=O)N[C@H](C(=O)N[C@H](C(=O)N1CCC[C@H]1C(=O)N[C@@H](CC(C)C)C(=O)N[C@@H](CC(C)C)C(=O)N[C@@H](CC(C)C)C(=O)N[C@@H](CC(C)C)C(=O)N[C@@H](CC(=O)O)C(=O)N[C@@H](CC(C)C)C(=O)N[C@@H](C)C(=O)N[C@@H](CC(C)C)C(=O)N[C@@H](CC(C)C)C(=O)N[C@H](C(=O)N[C@@H](CC(=O)O)C(=O)N[C@@H](C)C(=O)N[C@@H](CC(=O)O)C(=O)N[C@@H](CCC(=O)O)C(=O)NCC(=O)N[C@H](C(=O)O)[C@@H](C)O)C(C)C)[C@@H](C)O)[C@@H](C)O (stereo partly drawn) [ICG-WT pHLIP®]
- fluorescent signal in blood samples [1]: persistence of strong fluorescent signal within 2 hours

From US12290575B2, “Fluorescent compound comprising a fluorophore conjugated to a pH-triggered polypeptide” (UNIVERSITY OF RHODE ISLAND BOARD OF TRUSTEES, priority 2016, dated 2025)
